Assay results from ChEMBL document CHEMBL1157539, “Thousands of chemical starting points for antimalarial lead identification” (Nature, 2010).

System: Plasmodium falciparum
Assay: GSK_TCMDC: Inhibition of Plasmodium falciparum 3D7 in whole erythrocytes, using parasite LDH activity as an index of growth.
Assay type: functional, organism-based
Settings: Plasmodium falciparum, 3D7

Compound	XC50 [nM]
CCN(CC)CCNC(=O)/C(=C/C=C/c1cc2cc(Cl)c(Cl)cc2[nH]1)OC	927
CN1C(=O)OC[C@@H]1Cc1ccc2[nH]cc(C3=CCN(Cc4ccccc4)CC3)c2c1	417
O=C(Nc1cccc(-c2cc(-c3c(Cl)cccc3Cl)no2)c1)c1cnc2ccccc2c1	1100
CCCc1c(Cl)cc(CNCCCNc2nc3ccncc3[nH]2)cc1Cl	744
CCC1CN2CCc3cc(OC)c(OC)cc3C2CC1CC1NCCc2c1[nH]c1ccc(O)cc21 (configuration not stated)	103
CCCCCC(C)c1cc(O)c2c(c1)OC(C)(C)C=C2C1=CCN(Cc2ccccc2)CC1 (configuration not stated)	780
NC(=O)c1ccccc1Nc1nc(Nc2cccc(N3CCN(CCO)CC3)c2)ncc1Cl	39.6
O=C(c1ccc(-c2ccc(-c3nc4cc(C(F)(F)F)ccc4[nH]3)s2)cc1)N1CCN(CCc2ccccc2)CC1	592
O=C(/C=C/c1ccc(Cl)cc1)Nc1ccc2nc(CN3CCCC3)ccc2c1	82.1
CCOC(=O)NOC(C(=O)O)c1ccccc1 (configuration not stated)	189
FC(F)(F)c1ccc2[nH]ccc(=NN=Cc3cccc(Cl)c3)c2c1	825
CC(=O)Nc1cc(C(=O)Nc2cccc(-c3csc(-c4nc5ccccc5[nH]4)c3)c2)ccc1C	465
O=C(/C=C/c1ccc(Cl)c(Cl)c1)NCCCCCN1CCC(NC(=O)c2cc(Cl)ccc2F)CC1	1160
O=C(Nc1ccc(OC2CCN(Cc3ccc(F)cc3)C2)cc1)c1ccco1 (configuration not stated)	1040
O=C(NCc1ccc(Cl)c(Cl)c1)c1cccc(C2CCCN(Cc3ccc4[nH]cnc4c3)C2)c1 (configuration not stated)	932
Oc1ccc(CCNc2nc(NCCCOc3ccccc3-c3cccnc3)nc(N3CCNCC3)n2)cc1	1040
CCCCCN1CCCCC(NS(=O)(=O)c2ccc(C(=O)Nc3ccc(C(F)(F)F)cc3)cc2)C1 (configuration not stated)	768
N#Cc1ccc(-c2ccc(C(=O)NCCCCN3CCC(c4ccc5c(c4OCC(N)=O)CCCC5)CC3)nc2)cc1	730
NC(Cc1cccc(I)c1)C(=O)NCC1CCCO1 (configuration not stated)	895
O=C(/C=C/c1ccc(Cl)c(Cl)c1)NCCCCCN1CCC(NC(=O)Nc2ccc(C(F)(F)F)cc2)C1 (configuration not stated)	513
COc1ccccc1C1CN(Cc2coc3ccccc3c2=O)Cc2ccccc2O1 (configuration not stated)	1320
Cc1nc(-c2ccc(-c3ccc(C(=O)Nc4ccc(C(C)C)c(OCCN(C)C)c4)cc3)c(C)c2)no1	870
COc1ccc(NC(=O)N2CCCN(CCCCCNC(=O)/C=C/c3ccc(Cl)cc3)CC2)cc1Cl	814
CCc1sc(CN(CCCNc2cc(=O)c3ccccc3[nH]2)Cc2sc(CC)c(Br)c2-c2ccsc2)c(-c2ccsc2)c1Br	94.6
Cc1nc(C)c(C2CCC(c3ccc(Cl)cc3)CC2)c(O)c1Cl (configuration not stated)	51.8

Compound	XC50 [nM]
Cc1cccc(N2C(N)=NC(N)=NC2(C)C)c1C	759
C[C@H]1CN(Cc2cccc(-c3cc(CNC(=O)c4cccc(C(=O)c5ccc(Cl)c(Cl)c5)c4)ccc3F)c2)CCN1	1140
Cc1n[nH]c2cc(Nc3nccc(Nc4ccc(Oc5ccccc5)cc4)n3)ccc12	600
Cc1cc(Nc2ccc3ccccc3c2)n2ncnc2n1	173
Cc1cc(N[C@@H](CC(C)C)C(=O)Nc2ccccc2)nc(NCC2CCCCC2)n1	874
CC(C)(C)c1ccc(NC(=O)c2cccc(CN3CCCN(Cc4cccc(Cl)c4)CC3)c2)cc1	997
COCC(=O)Nc1nc2ccccc2[nH]1	301
O=C(Nc1cccc(-c2cccc(-c3nc4cc(C(F)(F)F)ccc4[nH]3)c2)c1)c1cccnc1	404
O=C(NC1CC1)c1ccc(Cn2c(SCc3cccc([N+](=O)[O-])c3)nc3ccccc3c2=O)cc1	764
Cc1csc(-c2nc(NCCc3c(C)noc3C)ncc2-c2ccsc2)n1	177
CC(C)CC(=O)N1CCNC[C@@H]1C(=O)NC1CC1	1090
Cc1[nH]c2ccc(O)cc2c1C1CCN(CC2CCC(NC(=O)/C=C/c3ccc(Cl)c(Cl)c3)CC2)CC1 (configuration not stated)	764
CC1(C)N=C(N)N=C(N)N1OCc1cccc2c1ccc1ccccc12	3.2
CC(C)(C)c1ccc(CNC(=O)c2cc(CNC3CCNC3)ccc2O)cc1 (configuration not stated)	805
CCCCCCCN1CC[C@@H](CCCc2ccnc3ccc(OCCC4CCNCC4)cc23)[C@@H](CC)C1	610
Cn1ncc2ccc(Nc3nccc(-c4ccc5c(c4)c(N)nn5C)n3)cc21	648
Cc1cc(N(C)C)nc(Nc2ccc(NC(=O)c3ccccc3Cl)cc2)n1	1020
O=C(Cn1nc(Br)nc1[N+](=O)[O-])NCC1CCCCC1	1100
O=C1c2ccccc2CN1CCCN1CCC(Oc2ccc(F)cc2)CC1	1210
c1cc(Nc2nccc(-c3cnn4ncccc34)n2)cc(-c2cnco2)c1	692
Fc1ccc2[nH]c(-c3ccc(-c4ccc(CNCc5cnn(-c6ccccc6)n5)cc4)cc3)nc2c1	540
Cc1ccccc1C1CCN(C2CCC(NC(=O)/C=C/c3cccc(Cl)c3Cl)CC2)CC1 (configuration not stated)	1030
COc1ccc(-c2nonc2NC(=O)c2ccc(C(C)(C)C)cc2)cc1OC	814
CN1CCN(Cc2cccc(-c3ccc4c(Nc5ccc(Oc6ccccc6)cc5)ccnc4c3)c2)CC1	226
CCN1CCN(c2ccc(Nc3c4ccccc4nc4ccccc34)cc2)CC1	718

Compound	XC50 [nM]
c1ccc(CCNCc2ccc(-c3ccc(CNC4CCN(Cc5ccccc5)CC4)cc3)nc2)cc1	446
COc1cccc(NC(=O)c2ccc(NCCCN3CC(C)CC(C)C3)c([N+](=O)[O-])c2)c1 (configuration not stated)	721
O=C(NCC1CCC(C(=O)NC2CCCc3ccccc32)CC1)c1ccc(O)c(-c2cccc([N+](=O)[O-])c2)c1 (configuration not stated)	942
O=C(NC1CCCc2ccccc21)[C@@H]1CCCN1C(=O)c1ccc(O)c(-c2ccc(Cl)c(Cl)c2)c1 (some centres not stated)	209
CCCN(CCC)C(=O)c1cc(C(=O)N[C@@H](Cc2ccccc2)[C@H](O)CNCc2cccc(OC)c2)cc(N2CCCCS2(=O)=O)c1	549
CCc1cccc(C)c1-n1nc(-c2cc(C(C)(C)C)oc2C)cc1N	658
Cc1cc(OCCCN2CCC(NS(=O)(=O)c3cccc(Br)c3)C2)c2ccccc2n1 (configuration not stated)	1210
Clc1cccc(-c2nc(Nc3ccnc(-c4ccc(CN5CCOCC5)cc4)c3)c3ccccc3n2)c1	710
COc1cc2nc(NCC3CCN(C(=O)c4ccc(-c5ccc(C(=O)N(C)C)cc5C)cc4)CC3)nc(N)c2cc1OC	948
Cc1c(C2CCN(CCCCNC(=O)c3ccc(-c4ccc(C#N)cc4)cc3)CC2)c2ccccc2n1CCO	995
NS(=O)(=O)c1cccc(-c2ccc3c(O)ncnc3c2)c1	946
COc1ccc2ncc(OC)c(CCN3CC[C@@H](NCc4ccc5c(n4)NC(=O)CS5)[C@H](O)C3)c2n1	831
Cc1nc2nc(N)nc(N)c2c(C)c1Cc1ccccc1	248
Cc1cc2nc(-c3ccc(C(=O)NCCCc4ccccc4)cc3)[nH]c2cc1C	1180
N=C(NCC1CC1c1ccccc1)c1cccc(C(=N)NCC2CC2c2ccccc2)n1 (configuration not stated)	1760
CCc1ccc(NC(=O)c2ccc(CN3CCCN(Cc4cccc(Cl)c4)CC3)cc2)cc1	1110
COc1ccc(Nc2nccc(NCC(O)c3cccc(C(F)(F)F)c3)n2)cc1 (configuration not stated)	886
CN1CCN(CC2(Nc3nccc(NCc4ccc(Cl)cc4Cl)n3)CCCCC2)CC1	593
CO/C(=C\C=C\c1cc2cc(Cl)c(Cl)cc2[nH]1)C(=O)NCCCN1CCN(c2cccc(CCO)c2)CC1	716
Cc1ccc(CN2CCN(c3cc4c(cc3Cl)CCN4C(=O)Cc3ccc(NC(=O)c4ccc(C(F)(F)F)cc4)cc3)CC2)cc1	935
CCCCOP(=O)(COc1ccc(CCN(CC(O)COc2cccc3[nH]c4ccccc4c23)CC(O)COc2cccc3[nH]c4ccccc4c23)cc1)C1CCCCC1 (configuration not stated)	939
COc1c(C2CCN(CCCCNC(=O)c3cc(-c4ccc(Cl)cc4)sc3C)CC2)ccc2c1CCCC2	629
NC1=NC(c2ccccc2)N(c2ccc(Cl)c(Cl)c2)C(N)=N1 (configuration not stated)	14.6
CCOC(=O)c1nc(-c2ccc(-c3ccccc3)cc2)[nH]c1N	422
CC(=O)Nc1ccc(CN2CCCN(c3cc(NC(=O)c4cccc(C)c4)ccn3)CC2)cc1	863

Compound	XC50 [nM]
COc1cc(C(=O)N2CCOC(CCN3CCc4c(c5ccccc5n4C)C3)(c3ccc(Cl)c(Cl)c3)C2)cc(OC)c1OC (configuration not stated)	357
O=C(NCC1CCC1)c1cnc(Nc2cccc(Cl)c2)nc1N1CCC1	862
CC(C)COc1ccc(C(O)C(CN2CCCCC2)c2ccccc2)cc1 (configuration not stated)	923
CCCCNC[C@@H](O)[C@H](Cc1ccccc1)NC(=O)c1cc2c3c(c1)c(CC)cn3CCS(=O)(=O)N2C	196
Cc1ccc2nc(C)n(C3CCN(C(=O)C4(c5ccccc5)CC4)CC3)c2c1	821
Cc1ccc2c(Cl)c(C(=O)N3CCCc4ccccc43)sc2c1	1510
FC(F)(F)c1ccc2[nH]ccc(=NN=Cc3ccc(Cl)cc3)c2c1	791
CC(C)(C)c1ccc(C(=O)NC2CCC(CCN3CCc4ccc(S(C)(=O)=O)cc4CC3)CC2)cc1C(F)(F)F (configuration not stated)	1220
CCN1CCC(N(Cc2ccc(-c3ccc(C(F)(F)F)cc3)cc2)C(=O)CCCCn2c(CCc3cccc(F)c3F)nc(=O)c3ccccc32)CC1	989
COc1cccc2c(NCCNc3ccnc4c(OC)cccc34)ccnc12	267
O=c1ccc2ccc(F)c3c2n1CC3CN1CCC(NCc2ccc(-c3cccc(Cl)c3)nc2)CC1 (configuration not stated)	992
COc1cc(F)c2ncc(Cl)c(CCN3CCC(NCc4ccc5c(n4)NC(=O)CO5)CC3)c2c1	504
CCCc1cc(NCC)nc(Nc2ccc(C)cc2)n1	894
CN(C)CCCNC(=O)c1ccccc1Sc1ccccc1C#N	1140
Clc1ccc(Nc2nc(Nc3ccc(Cl)c(Cl)c3)nc(Sc3nc4ccccc4[nH]3)n2)cc1Cl	490
NC(=O)c1cc2nc(Nc3ccc(F)cc3)nc(Nc3ccc(S(N)(=O)=O)cc3)c2[nH]1	795
CCNc1cc(CC)nc(Nc2ccc(C)cc2)n1	848
CN1CCN(CCCN(Cc2ccc(-c3ccc(CNCc4ccc5c(c4)OCO5)cc3)cc2)C(=O)Nc2ccccc2)CC1	707
COc1cc(Cn2ccc3c4c(N)nc(N)nc4ccc32)cc(OC)c1OC	9.34
CCNc1cc(C(=O)N[C@@H](Cc2ccccc2)[C@H](O)CNC(C)CC(C)C)c(F)c(N2CCCCS2(=O)=O)c1 (some centres not stated)	1120
CN1CCN(CCCN(Cc2csc(-c3ccc(CNCc4ccccc4)cc3)n2)C(=O)Nc2ccc3ccccc3c2)CC1	1100
COc1ccccc1CNC(=O)c1ccc(N2CCN(c3ccncc3)CC2)cn1	1360
